Columns and labels:
mouse myocytes (C2C12) = assay: Glucose oxidase assay of glucose uptake capability of myocytes; assay type: cell-based; details: C2C12 cells, 0.1, 1 or 10 μg/ml, 2 hours; for relative glucose uptake capability of cells (glucose consumption) compared to the control group: BSA-DMEM medium containing 500 μg/ml glucose
Description: The differentiated mouse myocytes (C2C12, purchased from ATCC) and adipocytes (3T3-L1, purchased from ATCC) were cultivated in a Dulbecco's modified Eagle's medium (DMEM) containing 2% bovine serum albumin (BSA) but serum free for 16 hours respectively. Then, the cells were washed with Dulbecco's phosphate-buffered saline (D-PBS), and medium was replaced with a 0.2% BSA-DMEM medium containing 500 μg/ml glucose. The cells thus provided were used in the following experiments. C2C12 cells provided by [Preparation Examples] were divided into 5 groups and were respectively cultivated with the following mediums for 2 hours: • 1. Group I: a BSA-DMEM medium containing 500 μg/ml glucose. • 2. Group II: a BSA-DMEM medium containing 500 μg/ml glucose and 100 nM insulin. • 3. Group III: a BSA-DMEM medium containing 500 μg/ml glucose and 0.1 μg/ml Poria cocos epidermis extract provided by [Preparation Example A-2]. • 4. Group IV: a BSA-DMEM medium containing 500 μg/ml glucose and 1 μg/ml Poria cocos epidermis extract provided by [Preparation Example A-2]. • 5. Group V: a BSA-DMEM medium containing 500 μg/ml glucose and 10 μg/ml Poria cocos epidermis extract provided by [Preparation Example A-2]. Thereafter, the content of glucose in the medium of each group was determined by a glucose oxidase assay to measure the level of glucose consumption (representing the glucose uptake capability of cells) of each group. Finally, the results of the control group (i.e., cells being cultivated with the medium of Group I) was served as a basis to calculate the relative glucose uptake capabilities of other groups. C2C12 cells provided by [Preparation Examples] were divided into 8 groups and were respectively cultivated with the following mediums for 2 hours: • 1. Group i: a BSA-DMEM medium containing 500 μg/ml glucose. • 2. […] Then, the content of glucose in the medium of each group was determined by a glucose oxidase assay to measure the level of glucose consumption of each group (representing the glucose uptake capability of cells). […]

[1] = test system: mouse adipocytes (3T3-L1); assay: Glucose oxidase assay of glucose uptake capability of adipocytes; assay type: cell-based; details: 2 hours; for relative glucose uptake capability of cells (glucose consumption) compared to the control group: 3T3-L1 cells, 0.1, 1 or 10 μg/ml, BSA-DMEM medium containing 500 μg/ml glucose
Description: The differentiated mouse myocytes (C2C12, purchased from ATCC) and adipocytes (3T3-L1, purchased from ATCC) were cultivated in a Dulbecco's modified Eagle's medium (DMEM) containing 2% bovine serum albumin (BSA) but serum free for 16 hours respectively. Then, the cells were washed with Dulbecco's phosphate-buffered saline (D-PBS), and medium was replaced with a 0.2% BSA-DMEM medium containing 500 μg/ml glucose. The cells thus provided were used in the following experiments. 3T3-L1 cells provided by [Preparation Examples] were divided into 5 groups and were respectively cultivated with the mediums of Groups I to V described in Example 1 (1-1) for 2 hours. Then, the content of glucose in the medium of each group were determined by a glucose oxidase assay to measure the level of glucose consumption of each group (representing the glucose uptake capability of cells). Finally, the results of the control group (i.e., cells being cultivated with the medium of Group I) was served as a basis to calculate the relative glucose uptake capabilities of other groups. 3T3-L1 cells provided by [Preparation Examples] were divided into 8 groups and were respectively cultivated with the mediums of Groups i to v as described in Example 2 (2-1) for 2 hours. Then, the content of glucose in the medium of each group was determined by a glucose oxidase assay to measure the level of glucose consumption of each group (representing the glucose uptake capability of cells). Finally, the results of the control group (i.e., cells being cultivated with the medium of Group i) was served as a basis to calculate the relative glucose uptake capabilities of other groups. FIG. 4A comprises the results of the control group, the positive control group (i.e., cells being cultivated with the medium of Group ii), and the groups being treated with poricoic acid A (i.e., cells being cultivated with the medium of Group iii, iv or v which contains poricoic acid A). FIG. 4B comprises the results of the control group, the positive control group, and the group being treated with poricoic acid B (i.e., cells being cultivated with the medium of Group iii, iv or v which contains poricoic acid B).

SMILES | relative glucose uptake capability of cells (glucose consumption) compared to the control group (mouse myocytes (C2C12)) | glucose uptake capability compared to the positive control group (mouse myocytes (C2C12); positive control 100 nM insulin) | increment in glucose uptake capability compared to the control group, medium dosage group ([1]; 3T3-L1 cells, 1 μg/ml) | increment in glucose uptake capability compared to the control group, high dosage group ([1]; 3T3-L1 cells, 10 μg/ml) | relative glucose uptake capability of cells (glucose consumption) compared to the control group [1]
C=C(CC[C@@H](C(=O)O)[C@H]1[C@H](O)C[C@@]2(C)C3=CC[C@@H](C(=C)C)[C@](C)(CCC(=O)O)C3=CC[C@]12C)C(C)C [poricoic acid A, Poricoic acid A] | significantly increased | equivalent to that of the positive control group | significant | significant | exhibited an increment in the glucose uptake capabilities
C=C(C)[C@@H]1CC=C2C(=CC[C@]3(C)[C@@H]([C@@H](CCC=C(C)C)C(=O)O)[C@H](O)C[C@@]23C)[C@@]1(C)CCC(=O)O [poricoic acid B, Poricoic acid B] | significantly increased |  |  |  | significantly increased
